Molecular target: T1, MYLK (MLCK) (Homo sapiens, UniProt Q15746)
T1 construct: purchased Thermo Fisher Scientific (Life Technologies) SelectScreen
Assay: SelectScreen LanthaScreen
Assay type: binding
Settings: read-out: % displacement
Procedure, shortened: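 Percent values come from Thermo SelectScreen profiling of NU5455, combining activity and binding assays. CSF1R was run in Z'LYTE format at Km app ATP, and CAMK1 in Adapta format with ATP listed at 10.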

T1 sequence (Q15746 whole entry): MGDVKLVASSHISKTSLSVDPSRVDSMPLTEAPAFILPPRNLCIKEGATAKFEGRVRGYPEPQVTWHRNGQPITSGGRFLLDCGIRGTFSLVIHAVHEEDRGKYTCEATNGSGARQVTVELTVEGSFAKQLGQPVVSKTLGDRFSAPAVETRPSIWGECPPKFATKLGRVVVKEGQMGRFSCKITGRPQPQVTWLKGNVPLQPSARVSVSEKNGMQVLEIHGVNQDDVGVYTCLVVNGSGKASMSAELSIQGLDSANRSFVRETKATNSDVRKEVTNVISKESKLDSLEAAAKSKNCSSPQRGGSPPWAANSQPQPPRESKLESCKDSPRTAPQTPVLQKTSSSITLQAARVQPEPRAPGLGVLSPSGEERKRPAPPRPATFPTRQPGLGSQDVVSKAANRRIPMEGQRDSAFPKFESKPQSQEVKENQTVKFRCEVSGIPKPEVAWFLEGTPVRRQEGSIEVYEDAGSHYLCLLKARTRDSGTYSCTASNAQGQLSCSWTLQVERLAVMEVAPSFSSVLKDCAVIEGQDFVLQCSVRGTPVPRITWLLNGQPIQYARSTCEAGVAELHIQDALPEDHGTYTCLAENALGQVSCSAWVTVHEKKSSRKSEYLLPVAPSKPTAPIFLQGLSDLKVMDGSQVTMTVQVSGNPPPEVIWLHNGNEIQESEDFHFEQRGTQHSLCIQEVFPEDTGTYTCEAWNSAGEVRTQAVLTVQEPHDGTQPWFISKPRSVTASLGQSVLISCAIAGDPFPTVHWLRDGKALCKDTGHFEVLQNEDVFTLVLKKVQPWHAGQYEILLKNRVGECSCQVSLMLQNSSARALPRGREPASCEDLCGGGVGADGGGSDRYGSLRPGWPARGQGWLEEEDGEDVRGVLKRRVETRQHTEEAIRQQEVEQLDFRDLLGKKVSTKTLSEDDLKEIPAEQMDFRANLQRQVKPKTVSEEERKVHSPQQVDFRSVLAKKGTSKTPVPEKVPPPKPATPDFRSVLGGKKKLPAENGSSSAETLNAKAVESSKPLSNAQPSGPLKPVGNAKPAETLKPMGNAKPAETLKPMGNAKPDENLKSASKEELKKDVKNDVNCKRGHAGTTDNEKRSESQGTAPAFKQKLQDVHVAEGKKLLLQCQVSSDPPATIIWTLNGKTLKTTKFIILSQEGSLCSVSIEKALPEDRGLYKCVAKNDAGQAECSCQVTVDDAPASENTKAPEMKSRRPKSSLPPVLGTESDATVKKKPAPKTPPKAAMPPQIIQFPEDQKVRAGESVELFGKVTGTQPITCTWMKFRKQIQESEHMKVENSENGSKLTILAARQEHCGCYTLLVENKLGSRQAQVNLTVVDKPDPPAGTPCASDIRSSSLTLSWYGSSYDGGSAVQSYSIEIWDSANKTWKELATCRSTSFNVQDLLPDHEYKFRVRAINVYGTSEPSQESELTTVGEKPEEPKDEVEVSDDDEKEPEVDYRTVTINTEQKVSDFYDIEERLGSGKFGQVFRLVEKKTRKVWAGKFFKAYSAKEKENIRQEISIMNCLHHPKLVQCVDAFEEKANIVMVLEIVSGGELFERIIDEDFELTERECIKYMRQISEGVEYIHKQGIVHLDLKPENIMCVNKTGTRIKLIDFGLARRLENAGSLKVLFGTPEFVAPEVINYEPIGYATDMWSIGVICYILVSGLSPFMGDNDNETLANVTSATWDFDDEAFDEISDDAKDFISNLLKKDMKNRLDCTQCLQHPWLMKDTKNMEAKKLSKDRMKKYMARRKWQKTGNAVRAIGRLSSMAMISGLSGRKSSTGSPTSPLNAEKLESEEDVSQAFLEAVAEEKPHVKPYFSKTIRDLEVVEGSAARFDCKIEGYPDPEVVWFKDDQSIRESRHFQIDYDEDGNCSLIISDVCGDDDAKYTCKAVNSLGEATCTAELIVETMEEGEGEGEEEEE

Compound: CN(C(=O)CN1CCOCC1)c1ccc2sc3c(-c4cccc5c(=O)cc(N6CC7CCC(C6)O7)oc45)cccc3c2c1 [NU5455]
- inhibition at 1 µM: 0.2%

Source: article PMC6934184, “Selective DNA-PKcs inhibition extends the therapeutic index of localized radiotherapy and chemotherapy” (The Journal of Clinical Investigation, 2019)
